Several values for one entry are separate records, joined by “and”; a condition that tells them apart may be missing. Equal entries are not always repeated.
What was measured:
Experiment in all cases: FFA sulfoconjugation assay (N6-MF-A formation with adenosine as scavenger)
Assay type in all cases: biochemical
[1] = biological target: T1, hSULT1A2 (Homo sapiens, UniProt P50226)
T1 construct: made in house; host or cells: Salmonella typhimurium TA1538 (cytosolic fraction, not purified)
Procedure: (§1) Cytosolic fractions containing individual SULT forms were prepared from transgenic S. typhimurium TA1538. Table S1 in the Supplementary Material provides a summary of the thirty SULTs used in the current study together with references describing the cloning of the respective S. typhimurium TA1538 strains. The expressed SULT forms are denoted with the prefixes h, m and r for human, mouse and rat enzymes, respectively. Bacteria were grown in Luria Broth medium containing ampicillin (100 µg/ml) by stirring for 8 h at 200 revolutions/min at 37 °C. The bacterial suspensions were centrifuged at 5,000 g for 10 min. The sediments were washed twice with 25 ml of 10 mM potassium phosphate buffer (pH 7.4)/50 mM potassium chloride (KCP buffer) and centrifuged again. The pellets were taken up in 800 µl KCP buffer and sonicated thrice for 15 s with 30 s pauses in between. The soluble fraction was attained by centrifuging for 1 h at 100,000 g. The supernatants (in the following termed cytosolic preparations) were frozen at −80 °C. The protein concentrations were determined according to a bicinchoninic acid (BCA) assay protocol. The SULT concentrations in the cytosolic preparations were estimated after electrophoretic separation and immunodetection using inclusion bodies of different SULT forms as standards (Teubner et al. [2007]). The preparation of SULT inclusion bodies and the immunodetection of SULTs is described in the Supplementary Material, which also contains a representative immunoblot of different amounts of rSult1a1standard and a cytosolic preparation of S. typhimurium expressing rSult1a1 (Fig. S1).
(§2) The reaction mixtures were prepared as described for HMF. In addition, they contained 10 mM adenosine as a nucleophilic scavenger. Following incubation for 20 min at 37 °C, sulfoconjugation reactions were stopped by adding 100 µl cold methanol containing 175 fmol of [^15N5]N ^6-MF-A as the internal standard, mixed and centrifuged at 15,000 g for 10 min. The clear supernatants were subjected to UPLC-MS/MS analyses. Incubations were performed as quadruplicates. At higher concentrations, FFA reacts spontaneously with adenosine at low, but detectable, levels. To correct for the SULT-independent adduct formation, mixtures with SULT-deficient cytosols were carried along simultaneously in duplicate. Controls were subtracted from the experimental samples.
(§3) The ribonucleoside adduct N ^6-((furan-2-yl)methyl)-adenosine (N ^6-MF-A) was analyzed by isotope-dilution UPLC-MS/MS with the same system described above using a HSS T3 column (1.8 µm, 2.1 × 100 mm, Waters). Samples of 8 µl were eluted with 10 mM ammonium bicarbonate buffer, pH 8.0 (A) and methanol (B) using an 6-min gradient from 98 % solvent A to 15 % solvent A at 0.35 ml/min flow rate (Yin et al. [2013]). The electrospray interface of the mass spectrometer operated in the positive ion mode. The fragmentations of N ^6-MF-A into the aglycone cation [N ^6-((furan-2-yl)methyl)-adenine-H]^+ (m/z = 348.1 → 216.1), the cleavage of the 2-methylfuranyl cation (m/z = 348.1 → 81.0) and the release of [N ^6-methyl-adenine-H]^+ (m/z = 348.1 → 148.0) were monitored together with the corresponding fragmentations of the isotope-labeled internal standard [^15N5]N ^6-MF-A for the formation of the aglycone (m/z = 353.1 → 221.1), the 2-methylfuran cation (m/z = 353.1 → 81.0) and ^15N5-labeled N ^6-methyl-adenine (m/z = 353.1 → 153.0). The N ^6-MF-A content of the incubation mixture was calculated from the ratio of peak areas resulting from the total ion current of all three MRM signals of the analyte. For the fragmentation of N ^6-MF-A ([^15N5]N ^6-MF-A), collision energies were 20, 25 and 35 eV for the transitions m/z = 348.1 → 216.1 (m/z = 353.1 → 221.1), m/z = 348.1 → 148.0 (m/z = 353.1 → 153.0) and m/z = 348.1 → 81.0 (m/z = 353.1 → 81.0), respectively. […]

[2] = biological target: T2, rSult1a1 (Rattus norvegicus, UniProt P17988); conditions: 1 mM FFA
T2 construct: made in house; host or cells: Salmonella typhimurium TA1538 (cytosolic fraction, enzyme not purified)
T2 sequence (P17988 whole entry): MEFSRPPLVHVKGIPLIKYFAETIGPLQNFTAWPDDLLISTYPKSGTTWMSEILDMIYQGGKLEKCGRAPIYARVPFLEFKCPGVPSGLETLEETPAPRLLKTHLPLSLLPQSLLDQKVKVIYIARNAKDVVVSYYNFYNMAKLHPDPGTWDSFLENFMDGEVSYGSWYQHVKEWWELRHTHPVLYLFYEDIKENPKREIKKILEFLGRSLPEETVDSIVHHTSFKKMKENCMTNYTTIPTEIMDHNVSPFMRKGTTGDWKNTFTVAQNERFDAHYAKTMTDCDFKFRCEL
Procedure: as §1, §2, §3

[3] = biological target: T3, mSult2a2 (Mus musculus, UniProt P50236)
T3 construct: made in house; host or cells: Salmonella typhimurium TA1538 (cytosolic fraction, enzyme not purified)
T3 sequence (P50236 1-285): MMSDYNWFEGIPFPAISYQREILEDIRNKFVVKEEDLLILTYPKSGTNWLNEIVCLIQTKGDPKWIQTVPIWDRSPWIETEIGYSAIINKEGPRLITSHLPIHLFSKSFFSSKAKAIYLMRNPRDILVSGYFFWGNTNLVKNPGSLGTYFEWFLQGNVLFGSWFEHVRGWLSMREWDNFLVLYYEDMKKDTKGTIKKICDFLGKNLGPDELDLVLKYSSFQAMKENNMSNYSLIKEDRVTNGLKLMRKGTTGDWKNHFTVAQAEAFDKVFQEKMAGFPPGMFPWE
Procedure: as §1, §2, §3

[4] = biological target: T4, hSULT1A1 (Homo sapiens, UniProt P50225)
T4 construct: made in house; host or cells: Salmonella typhimurium TA1538 (cytosolic fraction, not purified)
T4 sequence (P50225 whole entry): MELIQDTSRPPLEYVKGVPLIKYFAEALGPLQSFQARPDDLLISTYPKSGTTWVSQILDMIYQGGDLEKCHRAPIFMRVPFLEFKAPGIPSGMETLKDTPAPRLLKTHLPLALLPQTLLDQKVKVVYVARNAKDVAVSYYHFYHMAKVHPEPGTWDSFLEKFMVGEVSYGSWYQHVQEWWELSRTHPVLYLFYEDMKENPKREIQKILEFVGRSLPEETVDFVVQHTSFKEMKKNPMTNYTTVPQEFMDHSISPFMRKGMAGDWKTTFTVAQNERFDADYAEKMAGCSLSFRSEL
Procedure: as §1, §2, §3

[5] = biological target: T5, rSult2b1 (Rattus norvegicus, UniProt Q29YR5)
T5 construct: made in house; host or cells: Salmonella typhimurium TA1538 (cytosolic fraction, enzyme not purified)
T5 sequence (Q29YR5 1-340): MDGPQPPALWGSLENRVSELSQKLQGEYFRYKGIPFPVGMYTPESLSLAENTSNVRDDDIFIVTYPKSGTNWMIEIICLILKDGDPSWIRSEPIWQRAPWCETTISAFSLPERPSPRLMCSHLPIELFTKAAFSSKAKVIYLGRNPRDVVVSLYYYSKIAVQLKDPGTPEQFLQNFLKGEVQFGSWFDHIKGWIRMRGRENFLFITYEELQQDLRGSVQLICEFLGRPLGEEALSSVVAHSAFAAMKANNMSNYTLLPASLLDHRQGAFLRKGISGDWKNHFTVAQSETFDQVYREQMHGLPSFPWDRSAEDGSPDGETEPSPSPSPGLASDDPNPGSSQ
Procedure: as §1, §2, §3

[6] = 1 mM FFA, corrected by actual SULT concentration in the cytosolic preparation

T1 sequence (P50226 whole entry): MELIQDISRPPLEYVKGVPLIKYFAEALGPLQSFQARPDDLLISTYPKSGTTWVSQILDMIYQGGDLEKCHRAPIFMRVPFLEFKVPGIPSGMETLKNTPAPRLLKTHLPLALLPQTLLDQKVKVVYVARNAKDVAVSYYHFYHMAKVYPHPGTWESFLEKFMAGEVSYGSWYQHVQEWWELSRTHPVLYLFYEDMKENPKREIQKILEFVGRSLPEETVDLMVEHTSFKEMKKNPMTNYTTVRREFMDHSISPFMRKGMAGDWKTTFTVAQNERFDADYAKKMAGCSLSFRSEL

## OCc1ccco1 [FFA, furfuryl alcohol]
[1]; 0.1 mM FFA
  Rate of N6-MF-A formation: <18 fmol N ^6-MF-A/mg/min
[1]; 1 mM FFA
  Rate of N6-MF-A formation: 34.8 ± 0.5 fmol N ^6-MF-A/mg/min
[1]; [6]
  Rate of N6-MF-A formation (corr.): 2,480 ± 30 fmol N ^6-MF-A/mg/min
[1]; 10 mM FFA
  Rate of N6-MF-A formation: 150 ± 4 fmol N ^6-MF-A/mg/min
[2]
  Rate of N6-MF-A formation: 31.8 ± 0.8 fmol N ^6-MF-A/mg/min
[2]; corrected by actual SULT concentration in the cytosolic preparation
  Rate of N6-MF-A formation (corr.): 24,400 fmol N ^6-MF-A/mg/min and 24,400 ± 600 fmol N ^6-MF-A/mg/min
[2]; corrected rates
  ratio of N6-MF-A formation, rSult1a1 vs rSult1b1: ~71 fold
  ratio of N6-MF-A formation, rSult1a1 vs rSult1c1: about 6 fold
[3]; 0.1 mM FFA
  Rate of N6-MF-A formation: <18 fmol N ^6-MF-A/mg/min
[3]; 1 mM FFA
  Rate of N6-MF-A formation: <20 fmol N ^6-MF-A/mg/min
[3]; 10 mM FFA
  Rate of N6-MF-A formation: 216 ± 3 fmol N ^6-MF-A/mg/min
[4]; 0.1 mM FFA
  Rate of N6-MF-A formation: 73.5 ± 1.1 fmol N ^6-MF-A/mg/min
[4]; 1 mM FFA
  Rate of N6-MF-A formation: 575 ± 2 fmol N ^6-MF-A/mg/min
[4]; [6]
  Rate of N6-MF-A formation (corr.): 57,500 fmol N ^6-MF-A/mg/min and 57,500 ± 200 fmol N ^6-MF-A/mg/min
[4]; 1 mM FFA, corrected rates
  ratio of N6-MF-A formation rate, hSULT1A1 vs hSULT1A2, 1A3, 1B1, 1C3 and 2A1: 11- to 30 fold
[4]; 10 mM FFA
  Rate of N6-MF-A formation: 931 ± 5 fmol N ^6-MF-A/mg/min
[5]; 0.1 mM FFA
  Rate of N6-MF-A formation: <18 fmol N ^6-MF-A/mg/min
[5]; 1 mM FFA
  Rate of N6-MF-A formation: <20 fmol N ^6-MF-A/mg/min
[5]; 10 mM FFA
  Rate of N6-MF-A formation: <44 fmol N ^6-MF-A/mg/min
